We go through 24 molecules from patent US20240140957A1, “BRIDGED COMPOUNDS AS KRAS G12D INHIBITOR AND DEGRADER AND THE USE THEREOF” (BeiGene Switzerland GmbH, priority 2021, published 2024).

The experiment addresses GDP-loaded KRAS G12D (Homo sapiens, UniProt P01116, G12D). The experiment is described as follows: KRAS G12D Probe Displacement Assay. In kind it is binding. Particulars: KRAS G12D 0.5 nM, biotinylated probe 2 4 nM; Table 6 letters; read-out: KRAS G12D Probe Displacement Assay IC50 (class).

Structures are written as SMILES.

Chain of GDP-loaded KRAS G12D (P01116 1-188 isoform P01116-2 G12D): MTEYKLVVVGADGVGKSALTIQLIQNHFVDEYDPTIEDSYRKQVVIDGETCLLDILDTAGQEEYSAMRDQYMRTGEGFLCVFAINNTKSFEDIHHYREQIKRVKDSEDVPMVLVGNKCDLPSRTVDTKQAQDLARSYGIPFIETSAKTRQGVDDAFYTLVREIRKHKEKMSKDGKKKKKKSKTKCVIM

In general, IC50 refers to the concentration at which inhibition is half-maximal. For `Nc1nc2c(-c3c(C(F)(F)F)cc4c(N5CC6CCC(C5)N6)nc(OCC5(CO)CC5)nc4c3F)ccc(F)c2s1` [Example E149, (1-(((7-(2-amino-7-fluorobenzo[d]thiazol-4-yl)-4-(3,8-diazabicyclo[3.2.1]octan-3-yl)-8-fluoro-6-(trifluoromethyl)quinazolin-2-yl)oxy)methyl)cyclopropyl) methanol], the 50% inhibitory concentration (IC50) was below 50 nM.

For the molecule `N#CC1(COc2nc(N3CC4CCC(C3)N4)c3cc(C(F)(F)F)c(-c4ccc(F)c5sc(N)nc45)c(F)c3n2)CCC1` [Example E214, 1-(((7-(2-amino-7-fluorobenzo[d]thiazol-4-yl)-4-(3,8-diazabicyclo [3.2.1]octan-3-yl)-8-fluoro-6-(trifluoromethyl)quinazolin-2-yl)oxy)methyl)cyclobutane-1-carbonitrile], the IC50 was below 50 nM.

In the case of `Cc1cc(N)nc(-c2c(Cl)cc3c(N4C5CCC4CNC5)nc(OC[C@@]45CCCN4C[C@H](F)C5)nc3c2F)c1C(F)(F)F` [Example E96], the IC50 was below 50 nM.

As to `Cc1cc(N)nc(-c2c(Cl)cc3c(N4CC5CCC(C4)N5)nc(OCC45COC(C4)C5)nc3c2F)c1C(F)(F)F` [Example E224, 6-(2-((2-oxabicyclo[2.1.1]hexan-4-yl)methoxy)-4-(3,8-diazabicyclo[3.2.1]octan-3-yl)-6-chloro-8-fluoroquinazolin-7-yl)-4-methyl-5-(trifluoromethyl)pyridin-2-amine], the IC50 was below 50 nM.

For `COCC(CO)(COc1nc(N2CC3CCC(C2)N3)c2cc(C(F)(F)F)c(-c3ccc(F)c4sc(N)nc34)c(F)c2n1)OC` (stereo not drawn) [Example E169, 3-((7-(2-amino-7-fluorobenzo[d]thiazol-4-yl)-4-(3,8-diazabicyclo [3.2.1]octan-3-yl)-8-fluoro-6-(trifluoromethyl)quinazolin-2-yl)oxy)-2-methoxy-2-(methoxymethyl)propan-1-ol], the IC50 is below 50 nM.

`Nc1nc2c(-c3c(C(F)(F)F)cc4c(N5CC6CCC(C5)N6)nc(OCC56COC(C5)C6)nc4c3F)ccc(F)c2s1` [Example E152, 4-(2-((2-oxabicyclo[2.1.1]hexan-4-yl)methoxy)-4-(3,8-diazabicyclo[3.2.1]octan-3-yl)-8-fluoro-6-(trifluoromethyl)quinazolin-7-yl)-7-fluorobenzo[d] thiazol-2-amine]: the concentration for half-maximal inhibition (IC50) was below 50 nM.

For the molecule `CC1(COc2nc(N3CC4CCC(C3)N4)c3cc(C(F)(F)F)c(-c4ccc(F)c5sc(N)nc45)c(F)c3n2)COCCO1` (stereo not drawn) [Example E215, 4-(4-(3,8-diazabicyclo[3.2.1]octan-3-yl)-8-fluoro-2-((2-methyl-1,4-dioxan-2-yl)methoxy)-6-(trifluoromethyl)quinazolin-7-yl)-7-fluorobenzo[d]thiazol-2-amine], the IC50 is below 50 nM.

`Cc1cc(N)nc(-c2c(Cl)cc3c(N4CC5CCC(C4)N5)nc(OCC4(C)CCOC4)nc3c2F)c1C(F)(F)F` (stereo not drawn) [Example E203, 6-(4-(3,8-diazabicyclo[3.2.1]octan-3-yl)-6-chloro-8-fluoro-2-((3-methyltetrahydrofuran-3-yl)methoxy)quinazolin-7-yl)-4-methyl-5-(trifluoromethyl)pyridin-2-amine]: the IC50 is 50 to 100 nM.

On to `Nc1nc2c(-c3c(C(F)(F)F)cc4c(N5CC6CCC(C5)N6)nc(OCC56CC(O)(C5)C6)nc4c3F)ccc(F)c2s1` [Example E222, 3-(((7-(2-amino-7-fluorobenzo[d]thiazol-4-yl)-4-(3,8-diazabicyclo [3.2.1]octan-3-yl)-8-fluoro-6-(trifluoromethyl)quinazolin-2-yl)oxy)methyl)bicyclo[1.1.1]pentan-1-ol], for which the IC50 was below 50 nM.

Consider `Nc1nc2c(-c3c(C(F)(F)F)cc4c(N5CC6CCC(C5)N6)nc(OCCn5cccn5)nc4c3F)ccc(F)c2s1` [Example E185, 4-(2-(2-(1H-pyrazol-1-yl)ethoxy)-4-(3,8-diazabicyclo[3.2.1]octan-3-yl)-8-fluoro-6-(trifluoromethyl)quinazolin-7-yl)-7-fluorobenzo[d]thiazol-2-amine], for which the IC50 was below 50 nM.

With `Nc1nc2c(-c3c(SC(F)(F)F)cc4c(N5CC6CCC(C5)N6)nc(OC[C@@]56CCCN5C[C@H](F)C6)nc4c3F)ccc(F)c2s1` [Example E94, 4-(4-(3,8-diazabicyclo[3.2.1]octan-3-yl)-8-fluoro-2-(((2R,7aS)-2-fluorotetrahydro-1H-pyrrolizin-7a(5H)-yl)methoxy)-6-((trifluoromethyl)thio)quinazolin-7-yl)-7-fluorobenzo[d]thiazol-2-amine], the IC50 is below 50 nM.

As for `Cc1cc(N)nc(-c2c(Cl)cc3c(N4CC5CCC(C4)N5)nc(OCC45CCCN4C(CF)CC5)nc3c2F)c1C(F)(F)F` (stereo not drawn) [Example E133, 6-(4-(3,8-diazabicyclo[3.2.1]octan-3-yl)-6-chloro-8-fluoro-2-((3-(fluoromethyl)tetrahydro-1H-pyrrolizin-7a(5H)-yl)methoxy)quinazolin-7-yl)-4-methyl-5-(trifluoromethyl)pyridin-2-amine], the IC50 is below 50 nM.

On to `CC1(COc2nc(N3CC4CCC(C3)N4)c3cc(C(F)(F)F)c(-c4ccc(F)c5sc(N)nc45)c(F)c3n2)CCCOC1` (stereo not drawn) [Example E183, 4-(4-(3,8-diazabicyclo[3.2.1]octan-3-yl)-8-fluoro-2-((3-methyltetra hydro-2H-pyran-3-yl)methoxy)-6-(trifluoromethyl)quinazolin-7-yl)-7-fluorobenzo[d]thiazol-2-amine], for which the IC50 is below 50 nM.

With `Cc1cc(N)nc(-c2c(Cl)cc3c(N4CC5CCC(C4)N5)nc(OCC4C5COCC54)nc3c2F)c1C(F)(F)F` (stereo not drawn) [Example E231, 6-(2-((3-oxabicyclo[3.1.0]hexan-6-yl)methoxy)-4-(3,8-diazabicyclo[3.2.1]octan-3-yl)-6-chloro-8-fluoroquinazolin-7-yl)-4-methyl-5-(trifluoromethyl)pyridin-2-amine], the 50% inhibitory concentration (IC50) lay within 100 to 1000 nM.

Turning to `Nc1cc(-c2cc3nc(OC[C@@]45CCCN4C[C@H](F)C5)nc(N4CC5CCC(C4)N5)c3cc2Cl)c(C(F)(F)F)c(C(F)(F)F)c1` [Example E237, 3-(4-(3,8-diazabicyclo[3.2.1]octan-3-yl)-6-chloro-2-(((2R,7aS)-2-fluorotetrahydro-1H-pyrrolizin-7a(5H)-yl)methoxy)quinazolin-7-yl)-4,5-bis (trifluoromethyl) aniline], the IC50 was below 50 nM.

On to `N#Cc1c(N)sc2c(F)ccc(-c3c(Cl)cc4c(N5CC6CCC(C5)N6)nc(OCC5(CN6CCC(F)C6)CCC5)nc4c3F)c12` (stereo not drawn) [Example E132, 4-(4-(3,8-diazabicyclo[3.2.1]octan-3-yl)-6-chloro-8-fluoro-2-((1-((3-fluoropyrrolidin-1-yl)methyl)cyclobutyl)methoxy)quinazolin-7-yl)-2-amino-7-fluorobenzo [b]thiophene-3-carbonitrile], for which the IC50 is below 50 nM.

Regarding `C#Cc1cc(N)nc(-c2c(Cl)cc3c(N4C5CCC4CNC5)nc(OC[C@@]45CCCN4C[C@H](F)C5)nc3c2F)c1C(F)(F)F` [Example E113, 6-(4-(3,8-diazabicyclo[3.2.1]octan-8-yl)-6-chloro-8-fluoro-2-(((2R,7aS)-2-fluorotetrahydro-1H-pyrrolizin-7a(5H)-yl)methoxy)quinazolin-7-yl)-4-ethynyl-5-(trifluoromethyl)pyridin-2-amine], the IC50 is below 50 nM.

Consider `Nc1nc2c(-c3c(C(F)(F)F)cc4c(N5CC6CCC(C5)N6)nc(OCCc5cccnc5)nc4c3F)ccc(F)c2s1` [Example E184, 4-(4-(3,8-diazabicyclo[3.2.1]octan-3-yl)-8-fluoro-2-(2-(pyridin-3-yl)ethoxy)-6-(trifluoromethyl)quinazolin-7-yl)-7-fluorobenzo [d]thiazol-2-amine], for which the half-inhibitory concentration (IC50) was below 50 nM.

In the case of `C#Cc1cc(N)nc(-c2c(Cl)cc3c(N4CC5CCC(C4)N5)nc(OC[C@@]45CCCN4C[C@H](F)C5)nc3c2F)c1C(F)(F)F` [Example E108, 6-(4-(3,8-diazabicyclo[3.2.1]octan-3-yl)-6-chloro-8-fluoro-2-(((2R,7aS)-2-fluorotetrahydro-1H-pyrrolizin-7a(5H)-yl)methoxy)quinazolin-7-yl)-4-ethynyl-5-(trifluoromethyl)pyridin-2-aminp], the IC50 was below 50 nM.

Take `N#CC12CC(COc3nc(N4CC5CCC(C4)N5)c4cc(C(F)(F)F)c(-c5ccc(F)c6sc(N)nc56)c(F)c4n3)(C1)C2` [Example E186, 3-(((7-(2-amino-7-fluorobenzo[d]thiazol-4-yl)-4-(3,8-diazabicyclo [3.2.1]octan-3-yl)-8-fluoro-6-(trifluoromethyl)quinazolin-2-yl)oxy)methyl)bicyclo[1.1.1] pentane-1-carbonitrile]: the IC50 is below 50 nM.

On to `Nc1nc2c(-c3c(C(F)(F)F)cc4c(N5CC6CCC(C5)N6)nc(OCCC5COC5)nc4c3F)ccc(F)c2s1` [Example E189, 4-(4-(3,8-diazabicyclo[3.2.1]octan-3-yl)-8-fluoro-2-(2-(oxetan-3-yl)ethoxy)-6-(trifluoromethyl)quinazolin-7-yl)-7-fluorobenzo[d]thiazol-2-amine], for which the IC50 is below 50 nM.

Regarding `COC1CN2CC(F)CC2(COc2nc(N3C4CNCC3COC4)c3cc(F)c(-c4nc(N)cc(C)c4C(F)(F)F)c(F)c3n2)C1` (stereo not drawn) [Example E138, 6-(4-(3-oxa-7,9-diazabicyclo[3.3.1]nonan-9-yl)-6,8-difluoro-2-((2-fluoro-6-methoxytetrahydro-1H-pyrrolizin-7a(5H)-yl)methoxy)quinazolin-7-yl)-4-methyl-5-(trifluoromethyl)pyridin-2-amine], the half-maximal inhibitory concentration (IC50) lay within 100 to 1000 nM.

As for `N#CC1(F)CC(Oc2nc(N3CC4CCC(C3)N4)c3cc(C(F)(F)F)c(-c4ccc(F)c5sc(N)nc45)c(F)c3n2)C1` (stereo not drawn) [Example E151, 3-((7-(2-amino-7-fluorobenzo[d]thiazol-4-yl)-4-(3,8-diazabicyclo[3.2.1]octan-3-yl)-8-fluoro-6-(trifluoromethyl)quinazolin-2-yl)oxy)-1-fluorocyclo butane-1-carbonitrile], the IC50 was below 50 nM.

Consider `COCC1CC2(COc3nc(N4CC5CCC(C4)N5)c4cc(C(F)(F)F)c(-c5ccc(F)c6sc(N)nc56)c(F)c4n3)CC(F)CN12` (stereo not drawn) [Example E134, 4-(4-(3,8-diazabicyclo[3.2.1]octan-3-yl)-8-fluoro-2-((3-fluoro-7-(methoxymethyl)-1-azabicyclo[3.2.0]heptan-5-yl)methoxy)-6-(trifluoromethyl)quinazolin-7-yl)-7-fluorobenzo[d]thiazol-2-amine], for which the IC50 was below 50 nM.
